Experimental data reported in patent US8158580B2, “Pharmaceutical compositions containing a glycopeptide antibiotic and a cyclodextrin” (Theravance, Inc., priority 2000, dated 2012).
Read-outs that look alike come from different tables or passages of the source.

Details: female rats; for BUN / Creatinine: 50 mg/kg intravenous infusion, serum at 24 hours; for % Recovered (as unchanged parent) Kidney / % Recovered (as unchanged parent) Liver / % Recovered (as unchanged parent) Urine / Serum Conc.: 2-minute intravenous infusion, 24 hours, Mean (SD)
Method: Female Sprague-Dawley rates (three per group) were dosed with Compound A (50 mg/kg) formulated in either hydroxypropyl-β-cyclodextrin or 5% dextrose/water or vehicle. The indicated doses were administered in a volume of 10 mL/kg via a 2-minute intravenous infusion. At 24 hours, the animals were sacrificed and serum and tissue samples collected.

[1] = formulation 1% (w/v) CD (hydroxypropyl-β-cyclodextrin)
[2] = formulation 1% CD (hydroxypropyl-β-cyclodextrin), 50 mg/kg
[3] = formulation 5% (w/v) CD (hydroxypropyl-β-cyclodextrin)
[4] = formulation 5% CD (hydroxypropyl-β-cyclodextrin), 50 mg/kg
[5] = formulation 25% (w/v) CD (hydroxypropyl-β-cyclodextrin)
[6] = formulation 25% CD (hydroxypropyl-β-cyclodextrin), 50 mg/kg
[7] = formulation D5W (aqueous 5% dextrose solution, no cyclodextrin)
[8] = formulation D5W (aqueous 5% dextrose solution, no cyclodextrin), 50 mg/kg
[9] = formulations containing a cyclodextrin compared with formulation without, 50 mg/kg

## CCCCCCCCCCNCCNC1(C)CC(OC2C(Oc3c4cc5cc3Oc3ccc(cc3Cl)C(O)C3NC(=O)C(NC(=O)C5NC(=O)C(CC(N)=O)NC(=O)C(NC(=O)C(CC(C)C)NC)C(O)c5ccc(c(Cl)c5)O4)c4ccc(O)c(c4)-c4c(cc(O)c(CNCP(=O)(O)O)c4O)C(C(=O)O)NC3=O)OC(CO)C(O)C2O)OC(C)C1O (centres unmarked) [Compound A]
[1]
  BUN: 26 ± 5 mg/dL
  Creatinine: 0.34 ± 0.08 mg/dL
[2]
  % Recovered (as unchanged parent) Kidney: 5.68 (2.49) %
  % Recovered (as unchanged parent) Liver: 8.47 (0.46) %
  % Recovered (as unchanged parent) Urine: 17.45 (6.92) %
  Serum Conc.: 17.1 (12.1) μg/mL
[3]
  BUN: 18 ± 5 mg/dL
  Creatinine: 0.31 ± 0.07 mg/dL
[4]
  % Recovered (as unchanged parent) Kidney: 2.08 (0.43) %
  % Recovered (as unchanged parent) Liver: 4.89 (0.81) %
  % Recovered (as unchanged parent) Urine: 40.51 (18.57) %
  Serum Conc.: 1.66 (0.33) μg/mL
[5]
  BUN: 13 ± 2 mg/dL
  Creatinine: 0.26 ± 0.02 mg/dL
[6]
  % Recovered (as unchanged parent) Kidney: 0.62 (0.12) %
  % Recovered (as unchanged parent) Liver: 1.90 (0.32) %
  % Recovered (as unchanged parent) Urine: 90.91 (8.39) %
  Serum Conc.: 0.86 (0.19) μg/mL
[7]
  BUN: 67 ± 2 mg/dL
  Creatinine: 0.72 ± 0.08 mg/dL
[8]
  % Recovered (as unchanged parent) Kidney: 17.82 (4.94) %
  % Recovered (as unchanged parent) Liver: 14.19 (3.41) %
  % Recovered (as unchanged parent) Urine: 12.61 (4.60) %
  Serum Conc.: 59.8 (27.1) μg/mL
[9]
  liver and kidney accumulation: significantly lower
  urinary recovery: significantly higher
